Results taken from ChEMBL document CHEMBL3826939, “Discovery of Piperazinylquinoline Derivatives as Novel Respiratory Syncytial Virus Fusion Inhibitors” (ACS Med Chem Lett, 2016).
One block for each compound: values may come before it. The source made the active and inactive calls. No cut-off for these calls is given here.

Key:
[1] = Antiviral activity against Respiratory syncytial virus long A infected in human Hep2 cells assessed as reduction in virus-induced cytopathic effect measured after 6 days by CCK8 assay; assay type: functional, cell-based, Respiratory syncytial virus type A; conditions: HEp-2, 144 h
[2] = Cytotoxicity against human Hep2 cells measured after 6 days by CCK8 assay; assay type: cell-based, HEp-2
[3] = system: Respiratory syncytial virus; test: Antiviral activity against Respiratory syncytial virus long A infected in human Hep2 cells assessed as inhibition of viral replication measured after 3 days by plaque reduction assay; assay type: functional, organism-based; conditions: HEp-2, 72 h
[4] = system: Respiratory syncytial virus; test: Inhibition of Respiratory syncytial virus long A fusion protein expressed in human Flp-In T-REx-293 cells assessed as inhibition of cell-cell fusion at 0.1 to 100 nM measured after 3 days by microscopic analysis; assay type: cell-based
[5] = Intrinsic clearance in human liver microsomes; assay type: ADME; conditions: read-out: CLH
[6] = Intrinsic clearance in rat liver microsomes; assay type: ADME; conditions: read-out: CLH
[7] = Clearance in Wistar rat at […], iv by LC-MS/MS analysis; assay type: ADME, organism-based; conditions: in vivo
[8] = Volume of distribution at steady state in Wistar rat at […], iv by LC-MS/MS analysis; assay type: ADME, organism-based; conditions: in vivo, read-out: Vdss
[9] = Half life in Wistar rat at […], iv by LC-MS/MS analysis; assay type: ADME, organism-based; conditions: in vivo
[10] = Oral availability in Wistar rat at […] by LC-MS/MS analysis; assay type: ADME, organism-based; conditions: in vivo
[11] = Solubility of the compound by LYSA; assay type: physicochemical
[12] = Permeability of the compound by PAMPA assay; assay type: ADME; conditions: read-out: permeability
[13] = system: Respiratory syncytial virus; test: Inhibition of Respiratory syncytial virus long A fusion protein expressed in expressed in human Flp-In T-REx-293 cells assessed as inhibition of cell-cell fusion at 1 to 100 nM measured after 3 days by microscopic analysis; assay type: cell-based

Structure (SMILES): NCCNc1cc(N2CCN(C(=O)Cc3ccc(F)cc3)CC2)nc2ccccc12
- EC50 [1]: 95 nM
- CC50 at 144 h [2]: > 100000 nM

Structure (SMILES): Cc1cccc(CC(=O)N2CCN(c3cc(NCCN)c4ccccc4n3)CC2)c1
- EC50 [1]: 59 nM
- CC50 at 144 h [2]: > 100000 nM

Structure (SMILES): NCCNc1cc(N2CCN(c3cccc(Cl)c3)CC2)nc2ccccc12
- EC50 [1]: 977 nM
- CC50 at 144 h [2]: 6400 nM

Structure (SMILES): N#Cc1cccc(CC(=O)N2CCN(c3cc(NCCN)c4ccccc4n3)CC2)c1
- EC50 [1]: 225 nM
- CC50 at 144 h [2]: > 100000 nM

Structure (SMILES): CC(C)(C(=O)N1CCN(c2cc(NCCN)c3cc(Cl)ccc3n2)CC1)c1ccccc1
- EC50 [1]: 99 nM
- CC50 at 144 h [2]: 20800 nM

Structure (SMILES): NCCNc1cc(N2CCN(C(=O)Cc3ccccc3F)CC2)nc2ccccc12
- EC50 [1]: 89 nM
- CC50 at 144 h [2]: > 100000 nM

Structure (SMILES): Cc1ccc(CC(=O)N2CCN(c3cc(NCCN)c4ccccc4n3)CC2)cc1
- EC50 [1]: 142 nM
- CC50 at 144 h [2]: > 100000 nM

Structure (SMILES): CC(C)(C(=O)N1CCN(c2cc(NCCO)c3ccccc3n2)CC1)c1ccccc1
- EC50 [1]: 322 nM
- CC50 at 144 h [2]: > 100000 nM

Structure (SMILES): NCCNc1cc(N2CCN(C(=O)Cc3ccccc3Cl)CC2)nc2ccccc12
- EC50 [1]: 77 nM
- CC50 at 144 h [2]: > 100000 nM

Structure (SMILES): NCCNc1cc(N2CCN(c3ccc(Cl)cc3)CC2)nc2ccccc12
- EC50 [1]: > 100000 nM
- CC50 at 144 h [2]: 6600 nM

- EC50 [3]: < 100 nM
- CLint scaled [5]: 8.4 mL/min/kg
- CLint scaled [6]: 16.6 mL/min/kg
- clearance [7]: 222 mL/min/kg
- Vd [8]: 36.9 L/kg
- half-life [9]: 3 h
- bioavailability [10]: 57%
- solubility [11]: > 400 µg/mL
- Papp [12]: 0.74 ×10⁻⁶ cm/s
Structure (SMILES): CC(C)(C(=O)N1CCN(c2cc(NCCN)c3ccccc3n2)CC1)c1ccccc1
- EC50 [1]: 28 nM
- CC50 at 144 h [2]: > 100000 nM
- inhibition [4]: Active

Structure (SMILES): NCCNc1cc(N2CCN(C(=O)Cc3cccc(F)c3)CC2)nc2ccccc12
- EC50 [1]: 80 nM
- CC50 at 144 h [2]: > 100000 nM

Structure (SMILES): CCC(C(=O)N1CCN(c2cc(NCCN)c3ccccc3n2)CC1)c1ccccc1 (stereo unspecified)
- EC50 [1]: 556 nM
- CC50 at 144 h [2]: > 100000 nM

Structure (SMILES): CS(=O)(=O)N1CCN(c2cc(NCCN)c3ccccc3n2)CC1
- EC50 [1]: 2270 nM
- CC50 at 144 h [2]: > 100000 nM

Structure (SMILES): CCC(=O)N1CCN(c2cc(NCCN)c3ccccc3n2)CC1
- EC50 [1]: 3090 nM
- CC50 at 144 h [2]: > 100000 nM

Structure (SMILES): CC(C)(C(=O)N1CCN(c2cc(NCCN)c3c(Cl)cccc3n2)CC1)c1ccccc1
- EC50 [1]: 7960 nM
- CC50 at 144 h [2]: 20800 nM

Structure (SMILES): NCC(O)CNc1cc(N2CCC(c3ccccc3)CC2)nc2ccccc12 (stereo unspecified)
- EC50 [1]: 759 nM
- CC50 at 144 h [2]: 20800 nM

Structure (SMILES): NCCNc1cc(N2CCN(c3ccccc3)CC2)nc2ccccc12
- EC50 [1]: 865 nM
- CC50 at 144 h [2]: 20800 nM

Structure (SMILES): CC(C(=O)N1CCN(c2cc(NCCN)c3ccccc3n2)CC1)c1ccccc1 (stereo unspecified)
- EC50 [1]: 91 nM
- CC50 at 144 h [2]: > 100000 nM

- CLint scaled [5]: 5.7 mL/min/kg
- CLint scaled [6]: 18 mL/min/kg
- clearance [7]: 143 mL/min/kg
- Vd [8]: 67.9 L/kg
- half-life [9]: 7.3 h
- bioavailability [10]: 41%
- solubility [11]: > 400 µg/mL
- Papp [12]: 1.37 ×10⁻⁶ cm/s
Structure (SMILES): CNCCNc1cc(N2CCN(C(=O)C(C)(C)c3ccccc3)CC2)nc2ccccc12
- EC50 [1]: 33 nM
- CC50 at 144 h [2]: > 100000 nM
- inhibition [13]: Active

Structure (SMILES): NCCNc1cc(N2CCN(C(=O)Cc3cccc(Cl)c3)CC2)nc2ccccc12
- EC50 [1]: 66 nM
- CC50 at 144 h [2]: > 100000 nM

Structure (SMILES): COc1cccc(CC(=O)N2CCN(c3cc(NCCN)c4ccccc4n3)CC2)c1
- EC50 [1]: 98 nM
- CC50 at 144 h [2]: > 100000 nM

Structure (SMILES): NCCNc1cc(N2CCN(C(=O)C3(c4ccccc4)CC3)CC2)nc2ccccc12
- EC50 [1]: 17 nM
- CC50 at 144 h [2]: > 100000 nM

Structure (SMILES): CN(C)CCNc1cc(N2CCN(C(=O)C(C)(C)c3ccccc3)CC2)nc2ccccc12
- EC50 [1]: 929 nM
- CC50 at 144 h [2]: 55200 nM

Structure (SMILES): NCCNc1cc(N2CCN(C(=O)Cc3ccc(Cl)cc3)CC2)nc2ccccc12
- EC50 [1]: 58 nM
- CC50 at 144 h [2]: > 100000 nM

Structure (SMILES): CC(C)CC(=O)N1CCN(c2cc(NCCN)c3ccccc3n2)CC1
- EC50 [1]: 1880 nM
- CC50 at 144 h [2]: > 100000 nM

Structure (SMILES): NCCNc1cc(N2CCN(C(=O)Cc3ccc(F)c(F)c3)CC2)nc2ccccc12
- EC50 [1]: 255 nM
- CC50 at 144 h [2]: > 100000 nM

Structure (SMILES): CCC(CC)(C(=O)N1CCN(c2cc(NCCN)c3ccccc3n2)CC1)c1ccccc1
- EC50 [1]: 624 nM
- CC50 at 144 h [2]: > 100000 nM

Structure (SMILES): NCCNc1cc(N2CCN(C(=O)Cc3cc(F)cc(F)c3)CC2)nc2ccccc12
- EC50 [1]: 264 nM
- CC50 at 144 h [2]: > 100000 nM

Structure (SMILES): NCCNc1cc(N2CCN(C(=O)CCc3ccccc3)CC2)nc2ccccc12
- EC50 [1]: 464 nM
- CC50 at 144 h [2]: > 100000 nM

Structure (SMILES): NCCNc1cc(N2CCN(S(=O)(=O)c3ccccc3)CC2)nc2ccccc12
- EC50 [1]: 1170 nM
- CC50 at 144 h [2]: 20500 nM

Structure (SMILES): CC(=O)N1CCN(c2cc(NCCN)c3ccccc3n2)CC1
- EC50 [1]: 317 nM
- CC50 at 144 h [2]: > 100000 nM

Structure (SMILES): Cc1ccccc1CC(=O)N1CCN(c2cc(NCCN)c3ccccc3n2)CC1
- EC50 [1]: 29 nM
- CC50 at 144 h [2]: > 100000 nM

Structure (SMILES): NCCNc1cc(N2CCN(C(=O)Cc3ccccc3)CC2)nc2ccccc12
- EC50 [1]: 79 nM
- CC50 at 144 h [2]: > 100000 nM

Structure (SMILES): CC(C)(C(=O)N1CCN(c2cc(NCCN)c3ccc(Cl)cc3n2)CC1)c1ccccc1
- EC50 [1]: 2190 nM
- CC50 at 144 h [2]: 20900 nM

Structure (SMILES): COc1ccccc1CC(=O)N1CCN(c2cc(NCCN)c3ccccc3n2)CC1
- EC50 [1]: 56 nM
- CC50 at 144 h [2]: > 100000 nM

Structure (SMILES): CC(C)C(=O)N1CCN(c2cc(NCCN)c3ccccc3n2)CC1
- EC50 [1]: 847 nM
- CC50 at 144 h [2]: > 100000 nM

Structure (SMILES): NCCNc1cc(N2CCN(C(=O)c3ccccc3)CC2)nc2ccccc12
- EC50 [1]: 570 nM
- CC50 at 144 h [2]: > 100000 nM

Structure (SMILES): NCCNc1cc(N2CCN(C(=O)C3(c4ccccc4)CCC3)CC2)nc2ccccc12
- EC50 [1]: 86 nM
- CC50 at 144 h [2]: > 100000 nM

Structure (SMILES): NCCNc1cc(N2CCN(C(=O)C3CCCCC3)CC2)nc2ccccc12
- EC50 [1]: 9240 nM
- CC50 at 144 h [2]: > 100000 nM

Structure (SMILES): CC(=O)NCCNc1cc(N2CCN(C(=O)C(C)(C)c3ccccc3)CC2)nc2ccccc12
- EC50 [1]: 15600 nM
- CC50 at 144 h [2]: > 100000 nM

Structure (SMILES): COc1ccc(CC(=O)N2CCN(c3cc(NCCN)c4ccccc4n3)CC2)cc1
- EC50 [1]: 679 nM
- CC50 at 144 h [2]: > 100000 nM

Structure (SMILES): NCCNc1cc(N2CCN(C(=O)Cc3cccc(C(F)(F)F)c3)CC2)nc2ccccc12
- EC50 [1]: 563 nM
- CC50 at 144 h [2]: > 100000 nM

Structure (SMILES): NCCNc1cc(N2CCN(c3ccccc3Cl)CC2)nc2ccccc12
- EC50 [1]: 2010 nM
- CC50 at 144 h [2]: 20800 nM

Structure (SMILES): NCCNc1cc(N2CCN(C(=O)Cc3ccc(Cl)c(Cl)c3)CC2)nc2ccccc12
- EC50 [1]: 220 nM
- CC50 at 144 h [2]: 6680 nM

Structure (SMILES): NCCNc1cc(N2CCN(C(=O)C3(c4ccccc4)CCCC3)CC2)nc2ccccc12
- EC50 [1]: 3820 nM
- CC50 at 144 h [2]: > 100000 nM
